Test results taken from US11622970B2, “BCL-2 inhibitors and their use as pharmaceuticals” (PRELUDE THERAPEUTICS INCORPORATED, priority 2020, dated 2023).

Target: BCL-2 recombinant protein (Homo sapiens, UniProt P10415)
Assay: Cell free Bcl-2:Bak affinity assay (Bcl-2 Bak), HTRF competition of FAM-Bak peptide
Type: binding
Conditions: 1 μM compound, 4 nM BCL-2 recombinant protein, 100 nM FAM-Bak, read-out: potency (% inhibition at 1 μM)
How it was run: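 Compounds in 10-point 3-fold dilution preincubated 10 min at RT with 4 nM GST-BCL-2 (20 mM K phosphate pH 7.5, 50 mM NaCl, 1 mM EDTA, 0.005% Triton X-100), then 100 nM FAM-Bak 10 min, anti-GST-Tb added, 60 min RT dark. HTRF read; % inhibition vs DMSO and positive control, IC50 from curve fit.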

Sequence of BCL-2 recombinant protein (P10415 whole entry): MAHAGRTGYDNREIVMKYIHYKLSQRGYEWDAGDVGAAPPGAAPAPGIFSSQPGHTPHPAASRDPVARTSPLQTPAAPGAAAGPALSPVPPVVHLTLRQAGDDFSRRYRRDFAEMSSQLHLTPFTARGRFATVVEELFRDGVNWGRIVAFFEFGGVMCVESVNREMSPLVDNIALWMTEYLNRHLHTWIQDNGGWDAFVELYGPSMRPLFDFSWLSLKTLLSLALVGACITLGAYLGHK

| Compound | inhibition at 1 µM |
| --- | --- |
| CC1(C)CCC(CN2CCN(c3ccc(S(=O)(=O)NC(=O)c4ccc([N+](=O)[O-])c(OCc5ccccc5)c4)cc3)CC2)=C(c2ccc(Cl)cc2)C1 [Example 40, 3-(benzyloxy)-N-([4-[4-[[2-(4-chlorophenyl)-4,4-dimethylcyclohexen-1-yl]methyl]piperazin-1-yl]phenyl]sulfonyl)-4-nitrobenzamide] | 50 to 90% |
| CC1(C)CCC(CN2CCN(c3ccc(S(=O)(=O)NC(=O)c4cc(C5CC5)on4)cc3)CC2)=C(c2ccc(Cl)cc2)C1 [Example 12, N-([4-[4-[[2-(4-chlorophenyl)-4,4-dimethylcyclohexen-1-yl]methyl]piperazin-1-yl]phenyl]sulfonyl)-5-cyclopropylisoxazole-3-carboxamide] | < 50% |
| Cc1nn(C)c(C)c1-c1nc(C(=O)NS(=O)(=O)c2ccc(N3CCN(CC4=C(c5ccc(Cl)cc5)CC(C)(C)CC4)CC3)cc2)ccc1F [Example 44, N-[4-[4-[[2-(4-chlorophenyl)-4,4-dimethylcyclohexen-1-yl]methyl]piperazin-1-yl]phenyl]sulfonyl-5-fluoro-6-(1,3,5-trimethylpyrazol-4-yl)pyridine-2-carboxamide] | 50 to 90% |
| CC1(C)CCC(CN2CCN(c3ccc(S(=O)(=O)NC(=O)Cc4ccccc4F)cc3)CC2)=C(c2ccc(Cl)cc2)C1 [Example 30, N-([4-[4-[[2-(4-chlorophenyl)-4,4-dimethylcyclohexen-1-yl]methyl]piperazin-1-yl]phenyl]sulfonyl)-2-(2-fluorophenyl)acetamide] | 50 to 90% |
| Cc1cccc(COc2cccc(C(=O)NS(=O)(=O)c3ccc(N4CCN(CC5=C(c6ccc(Cl)cc6)CC(C)(C)CC5)CC4)cc3)c2)c1 [Example 34, N-([4-[4-[[2-(4-chlorophenyl)-4,4-dimethylcyclohexen-1-yl]methyl]piperazin-1-yl]phenyl]sulfonyl)-3-((3-methylbenzyl)oxy)benzamide] | 50 to 90% |

Further lines, results first:

| inhibition at 1 µM | Compound |
| --- | --- |
| 50 to 90% | CC1(C)CCC(CN2CCN(c3ccc(S(=O)(=O)NC(=O)c4ccccn4)cc3)CC2)=C(c2ccc(Cl)cc2)C1 [Example 24, N-([4-[4-[[2-(4-chlorophenyl)-4,4-dimethylcyclohexen-1-yl]methyl]piperazin-1-yl]phenyl]sulfonyl)pyridine-2-carboxamide] |
| 50 to 90% | CC1(C)CCC(CN2CCN(c3ccc(S(=O)(=O)NC(=O)c4ccc(Br)cn4)cc3)CC2)=C(c2ccc(Cl)cc2)C1 [Example 13, 5-bromo-N-([4-[4-[[2-(4-chlorophenyl)-4,4-dimethylcyclohexen-1-yl]methyl]piperazin-1-yl]phenyl]sulfonyl)pyridine-2-carboxamide] |
| 50 to 90% | CC1(C)CCC(CN2CCN(c3ccc(S(=O)(=O)NC(=O)c4ccc(Cl)c(Cl)n4)cc3)CC2)=C(c2ccc(Cl)cc2)C1 [Example 20, 5,6-dichloro-N-([4-[4-[[2-(4-chlorophenyl)-4,4-dimethylcyclohexen-1-yl]methyl]piperazin-1-yl]phenyl]sulfonyl)pyridine-2-carboxamide] |
| 50 to 90% | CC1(C)CCC(CN2CCN(c3ccc(S(=O)(=O)NC(=O)c4cnccn4)cc3)CC2)=C(c2ccc(Cl)cc2)C1 [Example 6, N-([4-[4-[[2-(4-chlorophenyl)-4,4-dimethylcyclohexen-1-yl]methyl]piperazin-1-yl]phenyl]sulfonyl)pyrazine-2-carboxamide] |
| 50 to 90% | CC1(C)CCC(CN2CCN(c3ccc(S(=O)(=O)NC(=O)c4ccc([N+](=O)[O-])c(Cl)n4)cc3)CC2)=C(c2ccc(Cl)cc2)C1 [Example 2, 6-chloro-N-[4-[4-[[2-(4-chlorophenyl)-4,4-dimethylcyclohexen-1-yl]methyl]piperazin-1-yl]phenyl]sulfonyl-5-nitropyridine-2-carboxamide] |
| 50 to 90% | CC1(C)CCC(CN2CCN(c3ccc(S(=O)(=O)NC(=O)c4ccc(F)c(-c5cn[nH]c5)n4)cc3)CC2)=C(c2ccc(Cl)cc2)C1 [Example 59, N-[4-[4-[[2-(4-Chlorophenyl)-4,4-dimethylcyclohexen-1-yl]methyl]piperazin-1-yl]phenyl]sulfonyl-5-fluoro-6-(1H-pyrazol-4-yl)pyridine-2-carboxamide] |

Same assay, conditions: 10-concentration IC50 mode, 4 nM BCL-2 recombinant protein, 100 nM FAM-Bak, read-out: potency (IC50)

| Compound | IC50 |
| --- | --- |
| Cc1cc(C(=O)NS(=O)(=O)c2ccc(N3CCN(CC4=C(c5ccc(Cl)cc5)CC(C)(C)CC4)CC3)cc2Oc2cnc3[nH]ccc3c2)cc([N+](=O)[O-])c1 [Example 79, N-[4-[4-[[2-(4-chlorophenyl)-4,4-dimethylcyclohexen-1-yl]methyl]piperazin-1-yl]-2-(1H-pyrrolo[2,3-b]pyridin-5-yloxy)phenyl]sulfonyl-3-methyl-5-nitrobenzamide] | 10 to 100 nM |
| Cc1c(Cl)c(C(=O)NS(=O)(=O)c2ccc(N3CCN(CC4=C(c5ccc(Cl)cc5)CC(C)(C)CC4)CC3)cc2Oc2cnc3[nH]ccc3c2)cc([N+](=O)[O-])c1NCC1CCOCC1 [Example 80, 2-Chloro-N-[4-[4-[[2-(4-chlorophenyl)-4,4-dimethylcyclohexen-1-yl]methyl]piperazin-1-yl]-2-(1H-pyrrolo[2,3-b]pyridin-5-yloxy)phenyl]sulfonyl-3-methyl-5-nitro-4-(oxan-4-ylmethylamino)benzamide] | < 10 nM |
| Cn1cc(-c2nc(C(=O)NS(=O)(=O)c3ccc(N4CCN(CC5=C(c6ccc(Cl)cc6)CC(C)(C)CC5)CC4)cc3Oc3cnc4[nH]ccc4c3)ccc2F)cn1 [Example 63, N-[4-[4-[[2-(4-Chlorophenyl)-4,4-dimethylcyclohexen-1-yl]methyl]piperazin-1-yl]-2-(1H-pyrrolo[2,3-b]pyridin-5-yloxy)phenyl]sulfonyl-5-fluoro-6-(1-methylpyrazol-4-yl)pyridine-2-carboxamide] | 10 to 100 nM |
| CC1(C)CCC(CN2CCN(c3ccc(S(=O)(=O)NC(=O)c4ccc(F)c(Br)n4)c(Oc4cnc5[nH]ccc5c4)c3)CC2)=C(c2ccc(Cl)cc2)C1 [Example 67, N-[4-[4-[[2-(4-chlorophenyl)-4,4-dimethylcyclohexen-1-yl]methyl]piperazin-1-yl]-2-(1H-pyrrolo[2,3-b]pyridin-5-yloxy)phenyl]sulfonyl-6-bromo-5-fluoropyridine-2-carboxamide] | 10 to 100 nM |
| CC1(C)CCC(CN2CCN(c3ccc(S(=O)(=O)NC(=O)c4ccc(F)c(Br)n4)cc3)CC2)=C(c2ccc(Cl)cc2)C1 [Example 33, 6-bromo-N-([4-[4-[[2-(4-chlorophenyl)-4,4-dimethylcyclohexen-1-yl]methyl]piperazin-1-yl]phenyl]sulfonyl)-5-fluoropyridine-2-carboxamide] | 10 to 100 nM |
| CC1(C)CCC(CN2CCN(c3ccc(S(=O)(=O)NC(=O)c4ccc(Cl)c(Cl)n4)c(Oc4cnc5[nH]ccc5c4)c3)CC2)=C(c2ccc(Cl)cc2)C1 [Example 68, 5,6-Dichloro-N-[4-[4-[[2-(4-chlorophenyl)-4,4-dimethylcyclohexen-1-yl]methyl]piperazin-1-yl]-2-(1H-pyrrolo[2,3-b]pyridin-5-yloxy)phenyl]sulfonylpyridine-2-carboxamide] | 10 to 100 nM |
| COCc1ccc(C(=O)NS(=O)(=O)c2ccc(N3CCN(CC4=C(c5ccc(Cl)cc5)CC(C)(C)CC4)CC3)cc2Oc2cnc3[nH]ccc3c2)cc1[N+](=O)[O-] [Example 87, N-[4-[4-[[2-(4-chlorophenyl)-4,4-dimethylcyclohexen-1-yl]methyl]piperazin-1-yl]-2-(1H-pyrrolo[2,3-b]pyridin-5-yloxy)phenyl]sulfonyl-4-(methoxymethyl)-3-nitrobenzamide] | 10 to 100 nM |
| CCOc1c([N+](=O)[O-])cc(C(=O)NS(=O)(=O)c2ccc(N3CCN(CC4=C(c5ccc(Cl)cc5)CC(C)(C)CC4)CC3)cc2Oc2cnc3[nH]ccc3c2)c(Cl)c1C [Example 102, 2-chloro-N-[4-[4-[[2-(4-chlorophenyl)-4,4-dimethylcyclohexen-1-yl]methyl]piperazin-1-yl]-2-(1H-pyrrolo[2,3-b]pyridin-5-yloxy)phenyl]sulfonyl-4-ethoxy-3-methyl-5-nitrobenzamide] | 100 to 1000 nM |
| Cc1cc(C(=O)NS(=O)(=O)c2ccc(N3CCN(CC4=C(c5ccc(Cl)cc5)CC(C)(C)CC4)CC3)cc2Oc2cnc3[nH]ccc3c2)nn1C [Example 77, N-[4-[4-[[2-(4-chlorophenyl)-4,4-dimethylcyclohexen-1-yl]methyl]piperazin-1-yl]-2-(1H-pyrrolo[2,3-b]pyridin-5-yloxy)phenyl]sulfonyl-1,5-dimethylpyrazole-3-carboxamide] | 100 to 1000 nM |
| CC1(C)CCC(CN2CCN(c3ccc(S(=O)(=O)NC(=O)c4ccc(CNc5ccc(Cl)cc5)c([N+](=O)[O-])c4)c(Oc4cnc5[nH]ccc5c4)c3)CC2)=C(c2ccc(Cl)cc2)C1 [Example 91, 4-[(4-chloroanilino)methyl]-N-[4-[4-[[2-(4-chlorophenyl)-4,4-dimethylcyclohexen-1-yl]methyl]piperazin-1-yl]-2-(1H-pyrrolo[2,3-b]pyridin-5-yloxy)phenyl]sulfonyl-3-nitrobenzamide] | 10 to 100 nM |
| CC1(C)CCC(CN2CCN(c3ccc(S(=O)(=O)NC(=O)c4ccc(COc5ccc(Cl)cc5)c([N+](=O)[O-])c4)c(Oc4cnc5[nH]ccc5c4)c3)CC2)=C(c2ccc(Cl)cc2)C1 [Example 82] | < 10 nM |
| COc1c([N+](=O)[O-])cc(C(=O)NS(=O)(=O)c2ccc(N3CCN(CC4=C(c5ccc(Cl)cc5)CC(C)(C)CC4)CC3)cc2Oc2cnc3[nH]ccc3c2)c(Cl)c1C [Example 101, 2-chloro-N-[4-[4-[[2-(4-chlorophenyl)-4,4-dimethylcyclohexen-1-yl]methyl]piperazin-1-yl]-2-(1H-pyrrolo[2,3-b]pyridin-5-yloxy)phenyl]sulfonyl-4-methoxy-3-methyl-5-nitrobenzamide] | 10 to 100 nM |
